Tests used:
[1] = Long-term stability of CBD-containing film: CBD content by HPLC after storage under harsh conditions; format: physicochemical
Experimental: The long-term stability of the orally disintegrating film of Example 2, having the composition of Table 6, was evaluated.
For comparison, the long-term stability of CBD in the orally disintegrating film containing CBD-prepared according to the composition shown in Table 7 and corresponding to Korean Patent Application No. 10-2019-0097649—was evaluated as Comparative Example 2.
Immediately after film formation, the films were packaged in airtight containers and left under harsh conditions for 0, 24, and 72 hours, after which the CBD content was analyzed by high-performance liquid chromatography (HPLC).
Additionally, further experiments were conducted to increase the stability of the orally disintegrating film of the current Example 2.

[2] = Primary solubilizer mixed with an additional solubilizer, extent of CBD dissolution observed; format: physicochemical
Experimental: Due to the compatibility required between ingredients for use in the CBD aqueous solution formulation, additional solubilizerswere mixed with the selected primary components, and the extent of CBD dissolution was evaluated.

SMILES: C=C(C)[C@@H]1CCC(C)=C[C@H]1c1c(O)cc(CCCCC)cc1O [CBD isolate powder, 2-[(1R,6R)-3-methyl-6-(1-methylethenyl)-2-cyclohexen-1-yl]-5-pentyl-1,3-benzenediol]
- Decrease (24 hrs, %) ([1]; 24 hrs vs 0 hr): 0.28%
- CBD content 0 hr ([1]; airtight container, 0 hr, HPLC): 103.58
- CBD content 24 hr ([1]; airtight container, 24 hr, HPLC): 103.86

SMILES: OCC(O)CO [Glycerin]
- state of CBD in aqueous solution (FIG. 1) [2]: not dissolved and appeared as precipitate or crystals

— patent US20260263361A1, “CANNABIDIOL AQUEOUS SOLUTION COMPOSITION AND CANNABIDIOL-CONTAINING PHARMACEUTICAL PREPARATION COMPRISING SAME” (priority 2023, published 2026)
